Values of other authors, collected in patent publication US10653634B1, “Polymeric nanoparticulate formulation to enhance the oral bioavailability of dapoxetine” (King Abdulaziz University, priority 2019, dated 2020).
Values after ≈ are worked out from the molar mass of the structure shown.

Legend:
[1] = not given; remark: listed apart in the source

- pKa: 8.6
- aqueous solubility (protonated DPX): 68 mg/mL (≈ 223 mM)
- bioavailability after oral administration (mean) [1]: 42%
- bioavailability after oral administration (variability) [1]: 15-76%
- time to peak plasma concentration after oral administration [1]: 60 to 80 min
SMILES: CN(C)[C@@H](CCOc1cccc2ccccc12)c1ccccc1 [DPX, (1S)—N,N-dimethyl-3-naphthalen-1-yloxy-1-phenylpropan-1-amine]
